The structures appear in SMILES notation.

Holding throughout (format): cell-based, Murine
In test [1] the test system is ESCs. The experiment in a line: ESC reseeding and proliferation on decellularized ECMs (specific growth rate). How it is done: (§1) To assess cell proliferation, ESCs of 0.5×10^5 per mL were seeded on the decelluarized ECMs and cultivated for 4 days in expansion media without LIF (FIG. 1). […] Cell numbers were determined at days 0, 2, and 4 using a hemocytometer after trypsin/EDTA dissociation. The specific growth rates were calculated as the slope of the proliferation curve. Cell viability was determined by the incubation with 5 mg/mL 3-(4,5-Dimethylthiazol-2-yl)-2,5-diphenyltetrazolium bromide (MTT, Sigma) solution. Afterwards, the formazan crystals were hydrolyzed with dimethyl sulfoxide (Sigma) and measured at 500 nm using a microplate reader. For the test of RA signaling, soluble RA (1 μM) or BMS 493 (1 μM, Santa Cruz), a pan-RAR antagonist, was supplemented in the media. To assess the differentiation ability after culturing on the decellularized ECMs, ESCs were replated on 0.1% gelatin-coated 12-well plates and cultured for 7 days in differentiation medium without any inducing growth factors. The cells were evaluated for the expression of Nestin (ectoderm), β-tubulin III (ectoderm), α-actinin (mesoderm), and FOXA2 (endoderm).

The test system of test [2] is ESCs. The experiment in a line: Three-germ layer differentiation of ESCs grown on decellularized ECM scaffolds. The protocol: (§2) To detect differentiation markers, the cells were incubated with mouse or rabbit primary antibody against: Nestin (Millipore), β-tubulin III (Sigma), α-actinin (sarcomeric, Sigma), or FOXA2 (Millipore). After washing, the cells were incubated with the corresponding secondary antibody: ALEXA FLUOR 488 goat anti-Mouse IgG1 (for Nestin and α-actinin) or IgG2b (for β-Tubulin III), or ALEXA FLUOR 488 goat anti-Rabbit IgG (for FOXA2). The localization of RAR-α was also assessed using goat anti-Rabbit RAR-α antibody (Abcam) detected by ALEXA FLUOR 594 donkey anti-Goat IgG.
as §1
For flow cytometry, 1×10^6 cells per sample were fixed with 4% PFA and washed with staining buffer (2% FBS in PBS). The cells were stained with DNA-intercalating dye ethidium monoazide bromide (EMA, Sigma) and permeabilized with 100% cold methanol. The samples were incubated with primary antibodies against Oct-4 (Millipore), Nestin, β-tubulin III, α-actinin, or FOXA2 followed by the corresponding secondary antibody: ALEXA FLUOR 488 goat anti-Mouse IgG1 (for Oct-4, Nestin, and α-actinin) or IgG2b (for β-tubulin III), or ALEXA FLUOR 488 goat anti-Rabbit IgG (for FOXA2). The cells were acquired with BD FACSCANTO II flow cytometer (Becton Dickinson) and analyzed against isotype controls using FlowJo software.

The test system of test [3] is ESC-derived NPCs. The test is described as follows: Neural marker expression of reseeded NPCs by flow cytometry. To be noted: for GFAP expression upon BMS 493 treatment: FIG. 17D. The protocol:
For various ECM scaffolds, 1×10^6 dissociated NPCs or intact NPC aggregates derived from ESCs were reseeded on the ECM scaffolds and cultivated for 3-4 days in DMEM-F12 containing 2% B27. The cells were analyzed for colonization on the scaffolds, proliferation, and viability. To study the effect of retinoid signaling, BMS 493 (1 μM, Santa Cruz), a pan-retinoic acid receptor (RAR) antagonist, was supplemented in the media for some experiments. After 3 days of culture in suspension, the NPC-ECM constructs were replated in 24-well plates coated with Geltrex™, the LDEV-Free Reduced Growth Factor Basement Membrane Matrix (Life Technologies), for another 3 days. The differentiation was assessed by immunocytochemistry for neural markers. […] The samples were then blocked and incubated with mouse or rabbit primary antibody against: Nestin (Sigma) or Musashi-1 (Abcam) for neural progenitors, β-tubulin III (Millipore) for neurons, or GFAP (Millipore) for astrocytes. After washing, the cells were incubated with the corresponding secondary antibody: Alexa Fluor® 488 goat anti-Mouse IgG1 for GFAP and β-tubulin III, or Alexa Fluor® 488 goat anti-Rabbit IgG for Nestin and Musashi-1 (Molecular Probes). The samples were mounted with 4′,6-Diamidino-2-Phenylindole (DAPI) and visualized using a fluorescent microscope. To quantify the levels of neural marker expression, the cells on ECM scaffolds were harvested by trypsinization and analyzed by flow cytometry. Briefly, 1×10^6 cells per sample were fixed with 4% PFA and washed with staining buffer (2% FBS in PBS). […] Alexa Fluor® 488 goat anti-Mouse IgG1 (for GFAP and β-tubulin III) or Alexa Fluor® 488 goat anti-Rabbit IgG (for Nestin and Musashi-1). The cells were acquired with BD FACSCanto™ II flow cytometer (Becton Dickinson) and analyzed against isotype controls using FlowJo software.

In test [4] the test system is ESCs. The test is described as follows: Oct-4 expression of reseeded ESCs by flow cytometry. How it is done: as §1
For flow cytometry, 1×10^6 cells per sample were fixed with 4% PFA and washed with staining buffer (2% FBS in PBS). […] The cells were acquired with BD FACSCANTO II flow cytometer (Becton Dickinson) and analyzed against isotype controls using FlowJo software.

The subject of test [5] is ESC-derived NPCs. The test is described as follows: NPC proliferation assays on ECM scaffolds (fold expansion, MTT). To be noted: NPCs on DE-EC and DE-NG scaffolds, BMS 493 1 μM, FIG. 17A. How it is done: For various ECM scaffolds, 1×10^6 dissociated NPCs or intact NPC aggregates derived from ESCs were reseeded on the ECM scaffolds and cultivated for 3-4 days in DMEM-F12 containing 2% B27. The cells were analyzed for colonization on the scaffolds, proliferation, and viability. To study the effect of retinoid signaling, BMS 493 (1 μM, Santa Cruz), a pan-retinoic acid receptor (RAR) antagonist, was supplemented in the media for some experiments.
Cell proliferation assays: Cell numbers were determined at days 3 using a hemocytometer after trypsin/EDTA dissociation for fold expansion. Cell proliferation kinetics was also determined by incubating with 5 mg/mL 3-(4,5-Dimethylthiazol-2-yl)-2,5-diphenyltetrazolium bromide (MTT, Sigma) solution. Afterwards, the formazan crystals were hydrolyzed with dimethyl sulfoxide (Sigma) and measured at 500 nm using a microplate reader.

The target of a further test is T1, RAR-α (Mus musculus, UniProt P11416).
T1 construct: Localization of RAR-α in ESC monolayers with or without RA treatment; endogenous in cells; host or cells: embryonic stem cells (monolayers, or reseeded on DE-RA10 scaffolds)
T1 sequence (P11416 1-462): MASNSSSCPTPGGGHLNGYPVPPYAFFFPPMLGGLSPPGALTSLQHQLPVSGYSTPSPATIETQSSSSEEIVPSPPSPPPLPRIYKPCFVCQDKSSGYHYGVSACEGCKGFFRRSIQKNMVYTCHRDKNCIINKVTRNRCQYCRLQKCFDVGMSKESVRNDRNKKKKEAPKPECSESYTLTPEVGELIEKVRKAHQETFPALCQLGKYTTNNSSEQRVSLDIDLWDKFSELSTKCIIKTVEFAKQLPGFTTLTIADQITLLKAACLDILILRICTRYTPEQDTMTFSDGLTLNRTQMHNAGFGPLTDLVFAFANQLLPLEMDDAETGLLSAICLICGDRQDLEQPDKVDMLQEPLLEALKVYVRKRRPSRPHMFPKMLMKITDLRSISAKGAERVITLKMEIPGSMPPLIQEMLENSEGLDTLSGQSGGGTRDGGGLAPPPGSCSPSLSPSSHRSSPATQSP
The test is described as follows: RAR-α localization in ESCs by immunocytochemistry. The following applies: ESCs on DE-RA10 without soluble RA; ESC monolayers exposed to soluble RA, FIG. 8A. How it is done: as §2
as §1, with “For the test of RA signaling, soluble RA (1 μM) or BMS 493 (1 μM, Santa Cruz), a pan-RAR antagonist, was supplemented in the media. To assess the differentiation ability after culturing on the decellularized ECMs, ESCs were replated on 0.1% gelatin-coated 12-well plates and cultured for 7 days in differentiation medium without any inducing growth factors.” left out

[6] abbreviates: BMS 493 (1 μM) added in the DE-RA10 culture, FIG. 8C.
[7] abbreviates: BMS 493 treated vs untreated, ESCs on DE-RA10, FIG. 8E.
Setting [8] is: FIG. 8E: ESCs on DE-RA10 with or without BMS 493 (1 μM).
The mark [9] stands for this setting: FIG. 8B: cells in DE-RA10 vs cells in DE-SE10 treated with soluble RA (1 μM).
Setting [10] is: FIG. 8D: ESCs on DE-RA10 vs ESCs treated by soluble RA.

As to `CC1(C)CC=C(C#Cc2ccccc2)c2cc(/C=C/c3ccc(C(=O)O)cc3)ccc21` [BMS 493], in the test with ESCs [1] (setting [6]), the ESC proliferation result is “reduced ESC proliferation”. Moreover, in the test with ESCs [2] (setting [7]), the Nestin expression result is “increased” and the “β-tubulin III expression” value is listed as “similar”. Further, in the test with ESCs [2] (setting [8]), the “expression of FOXA2” value is reported as 24% and the “expression of α-actinin” value was 3%. Moreover, the “GFAP expression upon BMS 493 treatment” value with ESC-derived NPCs [3] (DE-EC condition) was “increased GFAP expression”. Further, in the test with ESC-derived NPCs [3] (NPCs, DE-AC group), the “neural marker expression upon BMS 493” value is “no changes in neural marker expression”. Further, the “Nestin expression upon BMS 493 treatment” value in the test on ESC-derived NPCs [3] (NPCs, DE-EC and DE-NC conditions, FIG. 17B) is given as “increased”. In addition, in the test on ESC-derived NPCs [3] (cells from DE-NC scaffold, FIG. 17C), the “β-Tubulin III expression upon BMS 493 treatment” value is “significant decrease”. In the test on ESC-derived NPCs [3] (cells from DE-NC scaffold), the “GFAP expression upon BMS 493 treatment” value is on record as “significant decrease”. The Oct-4 expression entry in the test on ESCs [4] (setting [6]) was “not Oct-4 expression”. Moreover, the “cell proliferation after BMS 493 treatment” value with ESC-derived NPCs [5] is “reduced the cell proliferation”.
Take `CC1=C(/C=C/C(C)=C/C=C/C(C)=C/C(=O)O)C(C)(C)CCC1` [soluble RA, all-trans retinoic acid]: at RAR-α, the “localization of RAR-α” value was “translocation of RAR-α from cytoplasm to cell nucleus was confirmed”. In the test with ESCs [1] (setting [9]), this compound yielded a specific growth rate of -0.013 h⁻¹. Besides, in the test on ESCs [2] (setting [10]), the Nestin expression is listed as 32% and the “β-tubulin III expression” value is recorded as 25%. In the test with ESCs [4] (setting [9]), this compound showed an Oct-4 expression of 10.1%.

(Values after patent US10035980B2, “Extracellular matrix derived from stem cells and methods for production” (FLORIDA STATE UNIVERSITY RESEARCH FOUNDATION, INC., priority 2013, dated 2018).)
